Legend:
[1] = molecular target: T1, SSAO (amine oxidase [copper-containing] 3) (Homo sapiens, UniProt Q16853); test: Stability of the compound assessed as human full length SSAO-mediated drug metabolism expressed in CHO cells measured as compound remaining after 20 mins; assay type: ADME, cell-based; conditions: CHO cells expressing human full length SSAO, read-out: Stability
T1 sequence (Q16853 whole entry): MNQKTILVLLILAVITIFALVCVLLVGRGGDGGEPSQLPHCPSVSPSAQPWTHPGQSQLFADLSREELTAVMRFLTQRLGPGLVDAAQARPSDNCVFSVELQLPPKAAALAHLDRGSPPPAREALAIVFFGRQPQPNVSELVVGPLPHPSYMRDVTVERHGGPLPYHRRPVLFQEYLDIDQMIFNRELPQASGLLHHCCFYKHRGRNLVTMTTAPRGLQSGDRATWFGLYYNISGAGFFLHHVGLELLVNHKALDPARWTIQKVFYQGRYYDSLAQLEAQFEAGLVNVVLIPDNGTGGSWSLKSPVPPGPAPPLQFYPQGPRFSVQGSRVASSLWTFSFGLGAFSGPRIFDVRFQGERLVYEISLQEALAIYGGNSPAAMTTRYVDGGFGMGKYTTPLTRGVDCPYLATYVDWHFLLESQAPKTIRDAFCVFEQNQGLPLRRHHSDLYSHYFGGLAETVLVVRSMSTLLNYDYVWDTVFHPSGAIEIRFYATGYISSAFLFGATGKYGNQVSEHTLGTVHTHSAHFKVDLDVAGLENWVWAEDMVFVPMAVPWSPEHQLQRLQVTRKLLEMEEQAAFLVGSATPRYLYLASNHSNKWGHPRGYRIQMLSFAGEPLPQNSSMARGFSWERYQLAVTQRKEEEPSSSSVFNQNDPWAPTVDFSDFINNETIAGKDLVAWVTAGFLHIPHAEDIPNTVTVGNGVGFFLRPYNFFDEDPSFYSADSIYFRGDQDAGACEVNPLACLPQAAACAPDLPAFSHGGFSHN

[2] = Drug metabolism in human liver microsomes after 20 mins; assay type: ADME; conditions: read-out: Drug metabolism
[3] = Drug metabolism in guinea pig liver microsomes after 20 mins; assay type: ADME, Cavia porcellus; conditions: read-out: Drug metabolism
[4] = Drug metabolism in rat liver microsomes after 20 mins; assay type: ADME; conditions: read-out: Drug metabolism
hERG (KCNH2) [5] = molecular target: T2, hERG (KCNH2) (Homo sapiens, UniProt Q12809); test: Inhibition of human ERG channel expressed in CHO cells at 1 uM; assay type: cell-based; conditions: CHO cells expressing human ERG channel
T2 sequence (Q12809 whole entry): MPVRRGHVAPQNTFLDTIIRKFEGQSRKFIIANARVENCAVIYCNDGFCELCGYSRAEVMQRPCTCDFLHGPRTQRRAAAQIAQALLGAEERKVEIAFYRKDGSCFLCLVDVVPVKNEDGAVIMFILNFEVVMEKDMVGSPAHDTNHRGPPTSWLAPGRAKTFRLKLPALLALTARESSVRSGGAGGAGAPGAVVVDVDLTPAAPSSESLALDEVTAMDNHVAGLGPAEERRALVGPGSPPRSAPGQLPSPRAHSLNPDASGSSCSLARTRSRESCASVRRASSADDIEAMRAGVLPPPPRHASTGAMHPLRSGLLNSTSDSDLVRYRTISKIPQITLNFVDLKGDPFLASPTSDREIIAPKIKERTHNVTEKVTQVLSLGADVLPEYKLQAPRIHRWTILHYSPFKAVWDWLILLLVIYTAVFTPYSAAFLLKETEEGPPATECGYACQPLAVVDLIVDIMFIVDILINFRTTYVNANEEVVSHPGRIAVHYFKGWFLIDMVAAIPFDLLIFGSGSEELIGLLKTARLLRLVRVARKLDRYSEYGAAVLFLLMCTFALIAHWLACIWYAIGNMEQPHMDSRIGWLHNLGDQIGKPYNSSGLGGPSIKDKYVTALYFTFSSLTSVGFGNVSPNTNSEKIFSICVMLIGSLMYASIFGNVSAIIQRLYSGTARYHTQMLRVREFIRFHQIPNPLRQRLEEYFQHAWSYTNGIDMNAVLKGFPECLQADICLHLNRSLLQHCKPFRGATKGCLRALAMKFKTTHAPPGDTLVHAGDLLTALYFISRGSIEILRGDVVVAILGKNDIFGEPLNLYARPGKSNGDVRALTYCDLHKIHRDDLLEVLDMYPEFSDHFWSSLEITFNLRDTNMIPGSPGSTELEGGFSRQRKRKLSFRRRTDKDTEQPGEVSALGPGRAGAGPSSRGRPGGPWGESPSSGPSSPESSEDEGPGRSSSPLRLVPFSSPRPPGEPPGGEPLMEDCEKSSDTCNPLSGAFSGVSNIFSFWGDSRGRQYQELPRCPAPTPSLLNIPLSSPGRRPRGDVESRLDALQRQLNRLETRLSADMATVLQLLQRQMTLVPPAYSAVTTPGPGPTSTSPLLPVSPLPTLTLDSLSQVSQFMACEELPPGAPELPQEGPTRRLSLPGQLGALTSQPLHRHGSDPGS

hERG (KCNH2) [6] = molecular target: T2, hERG (KCNH2); test: Inhibition of human ERG channel expressed in CHO cells at 10 uM; assay type: cell-based; conditions: CHO cells expressing human ERG channel

Row | SMILES | remaining at 20 min [1] | metabolised at 20 min [2] | metabolised at 20 min [3] | metabolised at 20 min [4] | inhibition at 1 µM (hERG (KCNH2) [5]) | inhibition at 10 µM (hERG (KCNH2) [6])
1 | NCc1cccc(C2CCN(C(=O)c3ccc(C#Cc4ccccc4F)o3)CC2)c1 | 8% | – | – | – | – | –
2 | COCCn1cc(C(=O)N2CCC(c3cc(CN)ccc3F)CC2)c2cccc(F)c21 | 78% | 71% | 38% | 21% | – | –
3 | COCCn1cc(C(=O)N2CCC3(CC2)COc2ccc(CN)cc23)c2cccc(F)c21 | 89% | 17% | 12% | 10% | 11% | 16%

Reference: ChEMBL document CHEMBL3217425, “Structure-based design, synthesis, and profiling of a -tryptase inhibitor with a spiro-piperidineamide scaffold, benzylamine P1 group, and a substituted indole P4 group” (Medchemcomm, 2011)
